Converted amounts (≈) assume the structure as drawn. Like-named read-outs stand apart in the source and are kept apart here.
What was measured:
[1] = system: Mycobacterium smegmatis strain ATCC19420; experiment: In vitro efficacy test using Mycobacterium smegmatis strain ATCC19420 (MIC); format: cell-based; details: Mycolicibacterium smegmatis, ATCC19420, 72 h, CA-MHB + 0.02% Tween 80, 30° C., read after 72 hours
[2] = system: M. tuberculosis H37Rv; experiment: In vitro efficacy test using the H37Rv strain, Microplate Alamar Blue Assay (MABA) MIC; format: cell-based, Mycobacterium tuberculosis; details: for MIC: Mycobacterium tuberculosis, H37RV
[3] = system: M. tuberculosis H37R; experiment: microbe, parasite or virus in culture; format: cell-based, Mycobacterium tuberculosis; details: Mycobacterium tuberculosis, H37R; read-out: M. tuberculosis H37R LORA (MIC)
[4] = system: Vero Cell; experiment: Vero cell cytotoxicity (IC50); format: cell-based; details: Chlorocebus sabaeus, Vero, African green monkey kidney cells
[5] = Hela cell cytotoxicity (CC50); details: human, HeLa cells (human cervical cancer cells), CC50_Hela, half of the toxic concentration
[6] = aerobic, 7H9 medium, Alamar Blue, read-out: M. tuberculosis H37Rv MABA (MIC)

COc1ncc(C#Cc2ccccc2)cc1C(c1ccccc1)C(O)(CCN(C)C)c1cccc2ccccc12 (centres unmarked) [Compound 337, 4-(dimethylamino)-1-[2-methoxy-5-(2-phenylethynyl)-3-pyridyl]-2-(1-naphthyl)-1-phenyl-butan-2-ol]
MIC [1]: 0.25 µg/mL | MIC [2, 6]: 0.14 µg/mL | MIC [3]: 1.51 µg/mL (≈ 2.87 µM) | IC50 [4]: > 32 µg/mL | CC50 [5]: > 64 µg/mL

COc1ncc(-c2ccc(C(F)(F)F)cc2)cc1C(c1ccccc1)C(O)(CCN(C)C)c1cccc2ccccc12 (centres unmarked) [Compound 285, 4-(dimethylamino)-1-(2-methoxy-5-(4-(trifluoromethyl)phenyl)pyridin-3-yl)-2-(naphthalen-1-yl)-1-phenylbutan-2-ol]
MIC [1]: 0.0156 µg/mL | MIC [2, 6]: 0.96 µg/mL | MIC [3]: 0.63 µg/mL (≈ 1.1 µM) | IC50 [4]: > 32 µg/mL | CC50 [5]: > 64 µg/mL

COc1ncc(-c2cccnc2)cc1C(c1ccccc1)C(O)(CCN(C)C)c1cccc2ccccc12 (centres unmarked) [Compound 19, 4-(dimethylamino)-1-(6-methoxy-[3,3′-bipyridin]-5-yl)-2-(naphthalen-1-yl)-1-phenylbutan-2-ol]
MIC [1]: 0.5 µg/mL | MIC [2, 6]: 2.85 µg/mL | MIC [3]: 3.11 µg/mL (≈ 6.17 µM) | IC50 [4]: > 50 µg/mL | CC50 [5]: 10.3 µg/mL (≈ 20.4 µM)

COc1ncc(-c2csc(Cl)c2)cc1C(c1ccccc1)C(O)(CCN(C)C)c1cccc2ccccc12 (centres unmarked) [Compound 245, 1-(5-(5-chlorothiophen-3-yl)-2-methoxypyridin-3-yl)-4-(dimethylamino)-2-(naphthalen-1-yl)-1-phenylbutan-2-ol]
MIC [1]: ≤ 0.0625 µg/mL | MIC [2, 6]: 0.86 µg/mL | MIC [3]: 1.39 µg/mL (≈ 2.56 µM) | IC50 [4]: > 32 µg/mL | CC50 [5]: > 64 µg/mL

COc1ncc(-c2cccc(Br)c2)cc1C(c1ccccc1)C(O)(CCN(C)C)c1cccc2ccccc12 (centres unmarked) [Compound 129, 1-(5-(3-bromophenyl)-2-methoxypyridin-3-yl)-4-(dimethylamino)-2-(naphthalen-1-yl)-1-phenylbutan-2-ol]
MIC [1]: 0.5 µg/mL | MIC [2, 6]: 1.88 µg/mL | MIC [3]: 2.57 µg/mL (≈ 4.42 µM) | IC50 [4]: > 32 µg/mL | CC50 [5]: > 64 µg/mL

COc1ncc(-c2ccc(Cl)cc2)cc1C(c1ccccc1)C(O)(CCN(C)C)c1cccc(Cl)c1 (centres unmarked) [Compound 351, 2-(3-chlorophenyl)-1-(5-(4-chlorophenyl)-2-methoxypyridin-3-yl)-4-(dimethylamino)-1-phenylbutan-2-ol]
MIC [1]: 0.0156 µg/mL | MIC [2, 6]: 0.11 µg/mL | MIC [3]: 0.16 µg/mL (≈ 0.307 µM) | IC50 [4]: > 32 µg/mL | CC50 [5]: 25.5 µg/mL (≈ 48.9 µM)

COc1ncc(-c2ccccc2)cc1C(c1ccccc1)C(O)(CCN(C)C)c1cccc2ccccc12 (centres unmarked) [Compound 9, 4-(dimethylamino)-1-(2-methoxy-5-phenylpyridin-3-yl)-2-(naphthalen-1-yl)-1-phenylbutan-2-ol]
MIC [1]: 0.0312 µg/mL | MIC [2, 6]: 1.08 µg/mL | MIC ([2]; wild-type H37Rv strain, two values per compound, read-out: MABA MIC vs. H37Rv): 0.46 µM | MABA MIC vs. H37Rv ([2]; wild-type H37Rv strain, two values per compound): 0.36 µM | MIC [3]: 0.72 µg/mL (≈ 1.43 µM) | IC50 [4]: > 50 µg/mL | CC50 [5]: 30.4 µg/mL (≈ 60.4 µM)

COc1ncc(-c2ccco2)cc1C(c1ccccc1)C(O)(CCN(C)C)c1cccc2ccccc12 (centres unmarked) [Compound 183, 4-(dimethylamino)-1-(5-(furan-2-yl)-2-methoxypyridin-3-yl)-2-(naphthalen-1-yl)-1-phenylbutan-2-ol]
MIC [1]: ≤ 0.0625 µg/mL | MIC [2, 6]: 0.5 µg/mL | MIC [3]: 1.33 µg/mL (≈ 2.7 µM) | IC50 [4]: 24.5 µg/mL (≈ 49.8 µM) | CC50 [5]: > 64 µg/mL

COc1ncc(-c2ccc(Cl)cc2)cc1C(c1ccccc1)C(O)(CCN(C)C)c1cc(Cl)cc(Cl)c1 (centres unmarked) [Compound 341, 1-(5-(4-chlorophenyl)-2-methoxypyridin-3-yl)-2-(3,5-dichlorophenyl)-4-(dimethylamino)-1-phenylbutan-2-ol]
MIC [1]: ≤ 0.0625 µg/mL | MIC [2, 6]: 0.031 µg/mL | MIC [3]: 0.23 µg/mL (≈ 0.414 µM) | IC50 [4]: > 32 µg/mL | CC50 [5]: > 64 µg/mL

COc1ncc(-c2ccoc2)cc1C(c1ccccc1)C(O)(CCN(C)C)c1cccc2ccccc12 (centres unmarked) [Compound 178, 4-(dimethylamino)-1-(5-(furan-3-yl)-2-methoxypyridin-3-yl)-2-(naphthalen-1-yl)-1-phenylbutan-2-ol]
MIC [1]: 0.0312 µg/mL | MIC [2, 6]: 0.78 µg/mL | MIC [3]: 0.88 µg/mL (≈ 1.79 µM) | IC50 [4]: 25.5 µg/mL (≈ 51.8 µM) | CC50 [5]: 25.8 µg/mL (≈ 52.3 µM)

COc1ncc(-c2ccc(Br)cc2)cc1C(c1ccccc1)C(O)(CCN(C)C)c1cccc(F)c1 (centres unmarked) [Compound 319]
MIC [1]: 0.0312 µg/mL | MIC [2, 6]: 0.09 µg/mL | MIC [3]: 0.22 µg/mL (≈ 0.4 µM) | IC50 [4]: > 32 µg/mL | CC50 [5]: 49.2 µg/mL (≈ 89.5 µM)

COc1ncc(-c2nccs2)cc1C(c1ccccc1)C(O)(CCN(C)C)c1cccc2ccccc12 (centres unmarked) [Compound 169, 4-(dimethylamino)-1-(2-methoxy-5-(thiazol-2-yl)pyridin-3-yl)-2-(naphthalen-1-yl)-1-phenylbutan-2-ol]
MIC [1]: 0.25 µg/mL | MIC [2, 6]: 1.73 µg/mL | MIC [3]: 4.95 µg/mL (≈ 9.71 µM) | IC50 [4]: 25.9 µg/mL (≈ 50.7 µM) | CC50 [5]: 19.3 µg/mL (≈ 37.8 µM)

COc1ncc(-c2ccc(Cl)c(F)c2)cc1C(c1ccccc1)C(O)(CCN(C)C)c1cccc2ccccc12 (centres unmarked) [Compound 303, 1-(5-(4-chloro-3-fluorophenyl)-2-methoxypyridin-3-yl)-4-(dimethylamino)-2-(naphthalen-1-yl)-1-phenylbutan-2-ol]
MIC [1]: 0.0312 µg/mL | MIC [2, 6]: 0.19 µg/mL | MIC [3]: 0.52 µg/mL (≈ 0.937 µM) | IC50 [4]: > 32 µg/mL | CC50 [5]: > 64 µg/mL

COc1ncc(-c2ccc(F)cc2)cc1C(c1ccccc1)C(O)(CCN(C)C)c1cccc2ccccc12 (centres unmarked) [Compound 91, 4-(dimethylamino)-1-(5-(4-fluorophenyl)-2-methoxypyridin-3-yl)-2-(naphthalen-1-yl)-1-phenylbutan-2-ol]
MIC [1]: 0.0312 µg/mL | MIC [2, 6]: 0.34 µg/mL | MIC [3]: 0.71 µg/mL (≈ 1.36 µM) | IC50 [4]: > 50 µg/mL | CC50 [5]: > 64 µg/mL

COc1ncc(-c2cccs2)cc1C(c1ccccc1)C(O)(CCN(C)C)c1cccc2ccccc12 (centres unmarked) [Compound 141, 4-(dimethylamino)-1-(2-methoxy-5-(thiophen-2-yl)pyridin-3-yl)-2-(naphthalen-1-yl)-1-phenylbutan-2-ol]
MIC [1]: ≤ 0.0625 µg/mL | MIC [2, 6]: 0.93 µg/mL | MIC [3]: 1.44 µg/mL (≈ 2.83 µM) | IC50 [4]: 24.4 µg/mL (≈ 47.9 µM) | CC50 [5]: > 64 µg/mL

COc1nc(OC)c(C(c2ccccc2)C(O)(CCN(C)C)c2cccc3ccccc23)cc1-c1ccc(Cl)cc1 (single isomer, unassigned) [Compound 401, 1-(5-(4-chlorophenyl)-2,6-dimethoxypyridin-3-yl)-4-(dimethylamino)-2-(naphthalen-1-yl)-1-phenylbutan-2-ol]
MIC [1]: 0.0312 µg/mL | MIC [2, 6]: 0.05 µg/mL | MIC [3]: 0.19 µg/mL (≈ 0.335 µM) | IC50 [4]: > 32 µg/mL | CC50 [5]: > 64 µg/mL

COc1ncc(C(C)C)cc1C(c1ccccc1)C(O)(CCN(C)C)c1cccc2ccccc12 (centres unmarked) [Compound 175, 4-(dimethylamino)-1-(5-isopropyl-2-methoxypyridin-3-yl)-2-(naphthalen-1-yl)-1-phenylbutan-2-ol]
MIC [1]: 0.25 µg/mL | MIC [2, 6]: 1.42 µg/mL | MIC [3]: 2.83 µg/mL (≈ 6.04 µM) | IC50 [4]: > 50 µg/mL | CC50 [5]: 27.6 µg/mL (≈ 59 µM)

COc1ncc(-c2ccc(Br)cc2)cc1C(c1ccccc1)C(O)(CCN(C)C)c1cccc(Cl)c1 (centres unmarked) [Compound 355, 1-(5-(4-bromophenyl)-2-methoxypyridin-3-yl)-2-(3-chlorophenyl)-4-(dimethylamino)-1-phenylbutan-2-ol]
MIC [1]: 0.0156 µg/mL | MIC [2, 6]: 0.17 µg/mL | MIC [3]: 0.21 µg/mL (≈ 0.371 µM) | IC50 [4]: > 32 µg/mL | CC50 [5]: 53.2 µg/mL (≈ 94.1 µM)

COc1ncc(-c2cccc(F)c2)cc1C(c1ccccc1)C(O)(CCN(C)C)c1cccc2ccccc12 (centres unmarked) [Compound 87, 4-(dimethylamino)-1-(5-(3-fluorophenyl)-2-methoxypyridin-3-yl)-2-(naphthalen-1-yl)-1-phenylbutan-2-ol]
MIC [1]: ≤ 0.0625 µg/mL | MIC [2, 6]: 0.48 µg/mL | MIC [3]: 1.18 µg/mL (≈ 2.27 µM) | IC50 [4]: > 50 µg/mL | CC50 [5]: 62.8 µg/mL (≈ 121 µM)

COc1ncc(-c2ccc(OC(F)(F)F)cc2)cc1C(c1ccccc1)C(O)(CCN(C)C)c1cccc2ccccc12 (centres unmarked) [Compound 375, 4-(dimethylamino)-1 (2-methoxy-5-(4-(trifluoromethoxy)phenyl)pyridin-3-yl)-2-(naphthalen-1-yl)-1-phenylbutan-2-ol]
MIC [1]: 0.0156 µg/mL | MIC [2, 6]: 0.031 µg/mL | MIC [3]: 0.61 µg/mL (≈ 1.04 µM) | IC50 [4]: > 32 µg/mL | CC50 [5]: > 64 µg/mL

COc1ncc(N2CCOCC2)cc1C(c1ccccc1)C(O)(CCN(C)C)c1cccc2ccccc12 (centres unmarked) [Compound 269, 4-(dimethylamino)-1-(2-methoxy-5-morpholinopyridin-3-yl)-2-(naphthalen-1-yl)-1-phenylbutan-2-ol]
MIC [1]: 0.25 µg/mL | MIC [2, 6]: 5.64 µg/mL | MIC [3]: 6.3 µg/mL (≈ 12.3 µM) | IC50 [4]: > 32 µg/mL | CC50 [5]: 17.4 µg/mL (≈ 34.1 µM)

COc1ncc(-c2ccccc2)cc1C(c1ccccc1)C(O)(CCN(C)C)c1cccc(F)c1F (centres unmarked) [Compound 31, 2-(2,3-difluorophenyl)-4-(dimethylamino)-1-(2-methoxy-5-phenylpyridin-3-yl)-1-phenylbutan-2-ol]
MIC [1]: 0.25 µg/mL | MIC [2, 6]: 0.58 µg/mL | MIC [3]: 0.46 µg/mL (≈ 0.942 µM) | IC50 [4]: > 50 µg/mL | CC50 [5]: 28.1 µg/mL (≈ 57.5 µM)

COc1ncc(-c2cncs2)cc1C(c1ccccc1)C(O)(CCN(C)C)c1cccc2ccccc12 (centres unmarked) [Compound 171, 4-(dimethylamino)-1-(2-methoxy-5-(thiazol-5-yl)pyridin-3-yl)-2-(naphthalen-1-yl)-1-phenylbutan-2-ol]
MIC [1]: 0.125 µg/mL | MIC [2, 6]: 1.7 µg/mL | MIC [3]: 2.86 µg/mL (≈ 5.61 µM) | IC50 [4]: 25.4 µg/mL (≈ 49.7 µM) | CC50 [5]: 14.3 µg/mL (≈ 28.2 µM)

COc1ncc(-c2ccc(Br)cc2)cc1C(c1ccccc1)C(O)(CCN(C)C)c1cccc(F)c1F (centres unmarked) [Compound 312, 1-(5-(4-bromophenyl)-2-methoxypyridin-3-yl)-2-(2,3-difluorophenyl)-4-(dimethylamino)-1-phenylbutan-2-ol]
MIC [1]: 0.0156 µg/mL | MIC [2, 6]: 0.04 µg/mL | MIC [3]: 0.19 µg/mL (≈ 0.335 µM) | IC50 [4]: > 32 µg/mL | CC50 [5]: 31.3 µg/mL (≈ 55.2 µM)
